Measured values as given in PMC5515969, “Effects of 31 FDA approved small-molecule kinase inhibitors on isolated rat liver mitochondria” (Archives of Toxicology, 2016).
Where two headings read alike, the source gives them in different places.

How the values were obtained:
[1] = cited from earlier work
[2] = therapeutic maximal blood concentration, ref product labeling, cited from earlier work
[3] = tested on: isolated rat liver mitochondria; experiment: Mitochondrial swelling (absorbance at 535 nm); assay type: biochemical; conditions: difference in signal between KI and DMSO treated samples at the end of experiments; on Swelling 5XCmax: key: 0 indicates that the drug had no effects (negative)
[4] = tested on: RCC IV; experiment: RCC IV activity in submitochondrial particles; assay type: biochemical, rat; design: key to RCC IV at 50XCmax / RCC IV at 100XCmax: activity relative to DMSO-treated controls (control set as 1 = 100%); conditions: 50XCmax; relative to DMSO treated samples; in %
Outline: (§1)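 Kinase inhibitors were preincubated 15 min with submitochondrial particles (1 mg/ml) before complex activities were measured. RCC I was the rotenone-sensitive portion (activity without minus with rotenone). RCC I/V was read at 340 nm and RCC II at 600 nm every 1 min for 6 min. RCC III and IV were read at 550 nm every 10 s for 2 min. Activities are normalized to DMSO controls set as 1.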

[5] = tested on: isolated rat liver mitochondria; experiment: Mitochondrial inner membrane potential (MMP), Rhodamine 123; assay type: biochemical; conditions: difference in signal between KI and DMSO treated samples at the end of experiments
Source text: Fig. 3 KI effects on mitochondrial inner membrane potential (MMP). […] In a, c, data are means and standard derivations from three separate experiments. *p < 0.05 as compared to DMSO-treated samples at the end of experiments. In b, data are means of two independent experiments

[6] = tested on: RCC III; experiment: RCC III activity in submitochondrial particles; assay type: biochemical, rat; design: key to RCC III at 100XCmax: activity relative to DMSO-treated controls (control set as 1 = 100%); conditions: 100XCmax; relative to DMSO treated samples
Outline: as §1

[7] = tested on: isolated rat liver mitochondria; experiment: Mitochondrial oxygen consumption (glutamate/malate or succinate driven, state 4 and state 3); assay type: biochemical; conditions: DMSO treated samples set as 1; on State 3 respiration driven by succinate at 10XCmax: key: 0 indicates that the drug had no effects (negative); on State 3 respiration driven by succinate at 1XCmax: key: 0 indicates that the drug had no effects (negative)
Outline: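 Rat liver mitochondria (1 mg/ml protein) exposed 5 min to kinase inhibitors in 0.1% DMSO, then O2 consumption measured by Clark-type electrode with glutamate/malate or succinate (state 4), ADP added after 3 min (state 3). Rates normalized to 0.1% DMSO controls set to 1.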

[8] = tested on: RCC V; experiment: RCC V activity in submitochondrial particles; assay type: biochemical, rat; conditions: relative to DMSO treated samples; on RCC V at 5XCmax: key: 0 indicates that the drug had no effects (negative)
Outline: as §1

[9] = tested on: RCC I; experiment: RCC I activity in submitochondrial particles; assay type: biochemical, rat; design: key to RCC I at 10XCmax / RCC I at 100XCmax / RCC I at 50XCmax / RCC I at 30XCmax / RCC I at 20XCmax: activity relative to DMSO-treated controls (control set as 1 = 100%); conditions: 10XCmax; relative to DMSO treated samples
Outline: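 Abs 340 nm (I/V) or 600 nm (II), 1-min reads × 6 min; 550 nm (III, IV), 10-s reads × 2 min. RCC I = rotenone-free minus rotenone rate. DMSO control = 1.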

[10] = target: T1, RCC II (Rattus norvegicus, UniProt P21913+Q641Z9+Q6PCT8+Q920L2); experiment: RCC II activity in submitochondrial particles; assay type: biochemical; design: key: activity relative to DMSO-treated controls (control set as 1 = 100%); conditions: relative to DMSO treated samples
T1 construct: Submitochondrial particles were prepared by subjecting the intact mitochondria to three successive freeze–thaw cycles; from tissue; host or cells: rat liver mitochondria, used as submitochondrial particles
Outline: as §1

T1 sequence (Q920L2 35-656): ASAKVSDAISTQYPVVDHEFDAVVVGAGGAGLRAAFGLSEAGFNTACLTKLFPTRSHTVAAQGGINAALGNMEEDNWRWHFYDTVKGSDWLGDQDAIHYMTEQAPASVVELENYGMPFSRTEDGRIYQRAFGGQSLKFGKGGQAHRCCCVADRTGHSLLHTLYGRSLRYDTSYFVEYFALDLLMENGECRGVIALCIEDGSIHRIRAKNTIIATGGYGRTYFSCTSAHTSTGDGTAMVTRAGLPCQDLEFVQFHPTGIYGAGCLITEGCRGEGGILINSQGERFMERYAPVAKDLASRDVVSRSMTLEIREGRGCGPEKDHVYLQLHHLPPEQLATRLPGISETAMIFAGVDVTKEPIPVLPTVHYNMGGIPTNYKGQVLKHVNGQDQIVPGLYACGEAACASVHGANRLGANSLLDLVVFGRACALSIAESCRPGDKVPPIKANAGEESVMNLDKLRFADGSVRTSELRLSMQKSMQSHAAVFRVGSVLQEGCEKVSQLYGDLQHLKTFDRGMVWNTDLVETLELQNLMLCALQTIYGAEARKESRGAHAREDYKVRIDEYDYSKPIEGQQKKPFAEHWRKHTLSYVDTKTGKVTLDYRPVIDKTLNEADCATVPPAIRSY
T1 sequence (P21913 31-282): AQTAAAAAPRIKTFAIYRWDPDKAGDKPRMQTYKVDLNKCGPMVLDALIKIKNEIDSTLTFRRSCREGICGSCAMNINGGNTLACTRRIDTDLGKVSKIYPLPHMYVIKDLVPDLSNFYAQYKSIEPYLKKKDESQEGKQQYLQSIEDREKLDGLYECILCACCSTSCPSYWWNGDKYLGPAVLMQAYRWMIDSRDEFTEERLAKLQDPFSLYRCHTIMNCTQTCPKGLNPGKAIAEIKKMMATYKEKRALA
T1 sequence (Q641Z9 1-169): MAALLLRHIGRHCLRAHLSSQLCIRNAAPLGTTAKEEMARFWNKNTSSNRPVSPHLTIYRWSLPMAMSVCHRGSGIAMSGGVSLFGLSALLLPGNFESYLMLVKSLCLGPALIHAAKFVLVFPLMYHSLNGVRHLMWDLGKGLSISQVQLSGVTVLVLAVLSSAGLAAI
T1 sequence (Q6PCT8 57-159): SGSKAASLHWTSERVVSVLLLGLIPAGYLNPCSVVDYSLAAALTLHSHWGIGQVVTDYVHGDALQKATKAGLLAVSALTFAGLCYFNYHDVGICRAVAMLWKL

CCN(CC)CCNC(=O)c1c(C)[nH]c(/C=C2\C(=O)Nc3ccc(F)cc32)c1C [sunitinib malate]
1: DILI potential (based on labeling) ([1]; 1 = DILI positive, 0 = negative, ref product labeling)
61.9 ng/mL: Cmax [2]
BBW: fatal DILI: Labeling for DILI ([1]; in vivo)
0: Swelling 1XCmax ([3]; 1XCmax) | Swelling 2.5XCmax ([3]; 2.5XCmax) | Swelling 5XCmax ([3]; 5XCmax) | Swelling 10XCmax ([3]; 10XCmax) | Swelling 20XCmax ([3]; 20XCmax) | Swelling 30XCmax ([3]; 30XCmax) | Swelling 50XCmax ([3]; 50XCmax) | Swelling 100XCmax ([3]; 100XCmax) | RCC IV at 50XCmax [4] | MMP measured by Rhodamine 123 at 1XCmax ([5]; 1XCmax) | MMP measured by Rhodamine 123 at 2.5XCmax ([5]; 2.5XCmax) | MMP measured by Rhodamine 123 at 5XCmax ([5]; 5XCmax) | MMP measured by Rhodamine 123 at 10XCmax ([5]; 10XCmax) | MMP measured by Rhodamine 123 at 20XCmax ([5]; 20XCmax) | MMP measured by Rhodamine 123 at 30XCmax ([5]; 30XCmax) | MMP measured by Rhodamine 123 at 50XCmax ([5]; 50XCmax) | MMP measured by Rhodamine 123 at 100XCmax ([5]; 100XCmax) | RCC III at 100XCmax [6] | State 3 respiration driven by glutamate/malate at 1XCmax ([7]; 1XCmax) | State 3 respiration driven by succinate at 1XCmax ([7]; 1XCmax) | State 4 respiration driven by glutamate/malate at 1XCmax ([7]; 1XCmax) | State 4 respiration driven by succinate at 1XCmax ([7]; 1XCmax) | State 3 respiration driven by glutamate/malate at 2.5XCmax ([7]; 2.5XCmax) | State 3 respiration driven by succinate at 2.5XCmax ([7]; 2.5XCmax) | State 4 respiration driven by glutamate/malate at 2.5XCmax ([7]; 2.5XCmax) | State 4 respiration driven by succinate at 2.5XCmax ([7]; 2.5XCmax) | State 3 respiration driven by glutamate/malate at 5XCmax ([7]; 5XCmax) | State 3 respiration driven by succinate at 5XCmax ([7]; 5XCmax) | State 4 respiration driven by glutamate/malate at 5XCmax ([7]; 5XCmax) | State 4 respiration driven by succinate at 5XCmax ([7]; 5XCmax) | State 3 respiration driven by glutamate/malate at 10XCmax ([7]; 10XCmax) | State 3 respiration driven by succinate at 10XCmax ([7]; 10XCmax) | State 4 respiration driven by glutamate/malate at 10XCmax ([7]; 10XCmax) | State 4 respiration driven by succinate at 10XCmax ([7]; 10XCmax) | State 3 respiration driven by glutamate/malate at 20XCmax ([7]; 20XCmax) | State 3 respiration driven by succinate at 20XCmax ([7]; 20XCmax) | State 4 respiration driven by glutamate/malate at 20XCmax ([7]; 20XCmax) | State 4 respiration driven by succinate at 20XCmax ([7]; 20XCmax) | State 3 respiration driven by glutamate/malate at 30XCmax ([7]; 30XCmax) | State 3 respiration driven by succinate at 30XCmax ([7]; 30XCmax) | State 4 respiration driven by glutamate/malate at 30XCmax ([7]; 30XCmax) | State 4 respiration driven by succinate at 30XCmax ([7]; 30XCmax) | State 3 respiration driven by glutamate/malate at 50XCmax ([7]; 50XCmax) | State 3 respiration driven by succinate at 50XCmax ([7]; 50XCmax) | State 4 respiration driven by glutamate/malate at 50XCmax ([7]; 50XCmax) | State 4 respiration driven by succinate at 50XCmax ([7]; 50XCmax) | State 3 respiration driven by glutamate/malate at 100XCmax ([7]; 100XCmax) | State 3 respiration driven by succinate at 100XCmax ([7]; 100XCmax) | State 4 respiration driven by glutamate/malate at 100XCmax ([7]; 100XCmax) | State 4 respiration driven by succinate at 100XCmax ([7]; 100XCmax) | RCC V at 5XCmax ([8]; 5XCmax) | RCC V at 50XCmax ([8]; 50XCmax) | RCC I at 10XCmax [9] | RCC II at 1.0XCmax ([10]; 1.0XCmax) | RCC II at 2.5XCmax ([10]; 2.5XCmax) | RCC II at 5XCmax ([10]; 5XCmax) | RCC II at 10XCmax ([10]; 10XCmax) | RCC II at 20XCmax ([10]; 20XCmax) | RCC II at 30XCmax ([10]; 30XCmax) | RCC II at 50XCmax ([10]; 50XCmax) | RCC II at 100XCmax ([10]; 100XCmax)
0.12 µM: Cmax ([2]; read-out: Cmax at µM)
